Assay results as given in US20060167057A1, “Compounds for the treatment of CNS and amyloid associated diseases” (priority 2004, published 2006).

Biological target: T1, L1 transport system (large neutral amino acid carrier, L1-system carrier) (Rattus norvegicus, UniProt Q63016)
T1 construct: functionality of their endogenous transporters such as the L1-system carrier; endogenous in cells; host or cells: rat primary cerebrovascular (brain microcapillary) endothelial cells, RBEC
Assay: Competitive binding assay to the brain L1 transport system (L-[U-14C]phenylalanine on rat primary cerebrovascular endothelial cells)
Experimental: Compound samples in PBS (without Ca^+2, Mg^+2)-glucose 30 mM-HEPES 10 mM—DMSO 1% as prepared in Example 1 were thawed and left for at least 30 minutes at 20-23° C. before preparation of the following sub-dilutions for the competitive binding assay: • 200 μL of the stock solution were added to 800 μL PBS (without Ca^+2, Mg^+2)-Glucose-HEPES-1% DMSO (PBSD-1) [diluted 1:5 for a final 1:5 dilution] • 100 μL (1/5 dilution above) were added to 900 μL PBSD-1 [diluted 1:10 for a final 1:50 dilution] • 100 μL (1/50 dilution above) were added to 900 μL PBSD-1 [diluted 1:10 for a final 1:500 dilution]
These sub-dilutions were used immediately or stored overnight at 4° C. before the competitive binding assay. A volume of 45 μL of each of the compound dilutions (1:5, 1:50, 1:500) in PBSD-1 was added to the appropriate wells in the dilution plate.
Brains from sixty 24-day-old rats were dissected individually on a sterile lint moistened with ice cold Hanks' balanced salt solution (Gibco BRL, Grand Island, N.Y.) containing 10 mM HEPES (medium 1) supplemented with 0.1% BSA. Cerebellum, striatum, optic nerves, and brain stem (white matter) were removed. After a mid-sagittal section of the brain, the meninges and leptomeningeal debris were removed by rolling a sterile dry cotton swab on the cortices. (Ichikawa N, Naora K, Hirano H, Hashimoto M, Masumura S, and Iwamoto K (1996). Isolation and primary culture of rat cerebral microvascular endothelial cells for studying drug transport in vitro. J Pharmacol Toxicol Meth 36: 45-52.). Clean cortices were minced in pieces of ≈2 mm^3 in 15 mL of ice-cold medium 1-0.1% BSA. The preparation was divided into 4 sterile pre-weighed tubes and centrifuged at 330× g at 20-25° C. for 5 min. Tubes were weighed and pre-warmed (37° C.) and medium 1 with 0.5% BSA containing 0.3% collagenase and 10 μg/mL DNAse 1 (Roche, Laval, Quebec, Canada) were added to each tube (1 mL/g of tissue).
The brain-collagenase mixture was vigorously agitated in a water bath at 37° C. for 90 min. Fifteen min before the end of the digestion, the tissue was homogenized using a 10-mL pipette until a creamy mixture was obtained (≈20 aspirations). Cells were washed by adding medium 1 with 0.1% BSA to the homogenate (26 mL/tube) and centrifuged at 100× g at 20-25° C. for 7 min. This washing step was repeated 3 more times, once for 5 min and twice for 3 min. Each pellet was re-suspended in 25 mL of a 15% dextran solution prepared in medium 1 with 0.1% BSA and centrifuged at 3200× g at 4° C. for 25 min to isolate vessels from neural tissue and dextran layers. Vascular pellets were re-suspended in 5 mL Ca^++—Mg^++-free-medium 1 with 0.1% BSA (medium 2) at 20-25° C. and transferred in a 50-mL tube. Remaining vessels were collected by rinsing the tubes and pooling the rinsing suspension. (Rupnick M A, Carey A, and Williams S K (1988). Phenotypic diversity in cultured cerebral microvascular endothelial cells in vitro. Cell Develop Biol 24: 435-444.)
The vascular preparation was filtered and rinsed (20 mL of medium 2) through a sterile 355-μm mesh. The 355-μm filtrate was sequentially filtered twice (20 mL of medium 2) through sterile 112-μm meshes and rinsed (Stanimirovic D B, Wong J, Ball R, and Durkin J P (1995). Free radical-induced endothelial membrane dysfunction at the site of the blood-brain barrier: relationship between lipid peroxidation, Na,K-ATPase activity, and ^51Cr release. Neurochem Res 20:1417-1427.) and the latter filtrate was filtered and rinsed through a sterile 20-μm mesh. A final step of filtration and rinse was repeated through a double layer of 20-μm meshes. All 20-μm meshes, which retained the microcapillaries, were then transferred into a 50-mL tube containing 20 mL of a 0.1% collagenase/dispase (Roche) solution in medium 2 supplemented with 10 μg/mL DNAse 1 and 0.147 μg/mL tosyl-lysine-chloromethyl-ketone (Sigma Chemical Co., Oakville, Ontario, Canada) (medium 3).

T1 sequence (Q63016 whole entry): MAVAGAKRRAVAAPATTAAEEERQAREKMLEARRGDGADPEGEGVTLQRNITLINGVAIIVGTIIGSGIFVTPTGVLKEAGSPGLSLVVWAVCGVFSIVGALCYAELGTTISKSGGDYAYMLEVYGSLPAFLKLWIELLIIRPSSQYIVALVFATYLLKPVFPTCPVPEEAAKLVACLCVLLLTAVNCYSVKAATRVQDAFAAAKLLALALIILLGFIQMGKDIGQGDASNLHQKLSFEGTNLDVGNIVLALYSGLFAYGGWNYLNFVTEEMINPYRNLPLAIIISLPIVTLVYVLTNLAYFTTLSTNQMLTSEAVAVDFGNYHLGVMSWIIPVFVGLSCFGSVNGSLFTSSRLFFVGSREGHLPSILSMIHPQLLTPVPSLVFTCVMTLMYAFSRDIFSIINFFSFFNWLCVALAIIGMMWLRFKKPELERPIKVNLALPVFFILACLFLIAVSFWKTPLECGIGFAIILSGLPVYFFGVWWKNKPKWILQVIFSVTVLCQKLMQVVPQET
T1 sequence (Q794F9 whole entry partner): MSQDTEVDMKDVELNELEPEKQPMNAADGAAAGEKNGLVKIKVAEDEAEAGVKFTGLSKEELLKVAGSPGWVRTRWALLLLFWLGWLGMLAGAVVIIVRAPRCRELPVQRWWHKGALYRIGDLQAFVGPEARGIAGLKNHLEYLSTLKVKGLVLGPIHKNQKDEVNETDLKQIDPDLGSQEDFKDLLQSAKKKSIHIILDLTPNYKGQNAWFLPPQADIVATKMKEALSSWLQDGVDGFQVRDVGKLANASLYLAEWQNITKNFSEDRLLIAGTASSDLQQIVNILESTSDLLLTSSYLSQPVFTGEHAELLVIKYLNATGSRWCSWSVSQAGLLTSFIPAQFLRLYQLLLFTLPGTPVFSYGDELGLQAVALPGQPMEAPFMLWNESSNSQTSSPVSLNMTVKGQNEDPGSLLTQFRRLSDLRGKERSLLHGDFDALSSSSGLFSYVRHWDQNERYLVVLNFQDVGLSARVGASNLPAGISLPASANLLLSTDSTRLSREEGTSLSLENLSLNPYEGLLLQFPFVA

NC(Cc1cccc(CSc2ncnc3[nH]ncc23)n1)C(=O)O (stereo not drawn) [Compound 33]
Comparison with the Binding of Phenylalanine (10^−4 M): 3 (X > 20 Rank 3) | Comparison with the Binding of Phenylalanine (10^−5 M): 3 (X > 20 Rank 3) | Comparison with the Binding of Phenylalanine (10^−6 M): 3 (X > 20 Rank 3)

NC(=O)C(N)Cc1cccc(CSc2ncnc3[nH]ncc23)n1 (stereo not drawn) [Compound 34]
Comparison with the Binding of Phenylalanine (10^−4 M): 0 (X < 0 Rank 0) | Comparison with the Binding of Phenylalanine (10^−5 M): 0 (X < 0 Rank 0) | Comparison with the Binding of Phenylalanine (10^−6 M): 1 (0 < X < 10 Rank 1)

NC(Cc1cccc(CSc2nnc[nH]2)n1)C(=O)O (stereo not drawn) [Compound 35]
Comparison with the Binding of Phenylalanine (10^−4 M): 0 (X < 0 Rank 0) | Comparison with the Binding of Phenylalanine (10^−5 M): 0 (X < 0 Rank 0) | Comparison with the Binding of Phenylalanine (10^−6 M): 3 (X > 20 Rank 3)

Nc1ccnc(SCc2cccc(CC(N)C(=O)O)n2)n1 (stereo not drawn) [Compound 38]
Comparison with the Binding of Phenylalanine (10^−4 M): 2 (10 < X < 20 Rank 2) | Comparison with the Binding of Phenylalanine (10^−5 M): 3 (X > 20 Rank 3) | Comparison with the Binding of Phenylalanine (10^−6 M): 3 (X > 20 Rank 3)

NC(=O)C(N)Cc1cccc(CSc2nccc(N)n2)n1 (stereo not drawn) [Compound 39]
Comparison with the Binding of Phenylalanine (10^−4 M): 0 (X < 0 Rank 0) | Comparison with the Binding of Phenylalanine (10^−5 M): 2 (10 < X < 20 Rank 2) | Comparison with the Binding of Phenylalanine (10^−6 M): 3 (X > 20 Rank 3)

NC(Cc1cccc(-c2cccc(N3CC=CCC3)c2)c1)C(=O)O (stereo not drawn) [Compound 43]
Comparison with the Binding of Phenylalanine (10^−4 M): 0 (X < 0 Rank 0) | Comparison with the Binding of Phenylalanine (10^−5 M): 2 (10 < X < 20 Rank 2) | Comparison with the Binding of Phenylalanine (10^−6 M): 0 (X < 0 Rank 0)

NC(Cc1ccc(-c2ccc(CN3CC=CCC3)cc2)cc1)C(=O)O (stereo not drawn) [Compound 44]
Comparison with the Binding of Phenylalanine (10^−4 M): 0 (X < 0 Rank 0) | Comparison with the Binding of Phenylalanine (10^−5 M): 1 (0 < X < 10 Rank 1) | Comparison with the Binding of Phenylalanine (10^−6 M): 0 (X < 0 Rank 0)

NC(Cc1cccc(CSc2ccnc3cc(C(F)(F)F)ccc23)n1)C(=O)O (stereo not drawn) [Compound 45]
Comparison with the Binding of Phenylalanine (10^−4 M): 0 (X < 0 Rank 0) | Comparison with the Binding of Phenylalanine (10^−5 M): 2 (10 < X < 20 Rank 2) | Comparison with the Binding of Phenylalanine (10^−6 M): 0 (X < 0 Rank 0)

NC(Cc1ccc(-c2ccc(CSc3ccnc4cc(C(F)(F)F)ccc34)cc2)cc1)C(=O)O (stereo not drawn) [Compound 47]
Comparison with the Binding of Phenylalanine (10^−4 M): 0 (X < 0 Rank 0) | Comparison with the Binding of Phenylalanine (10^−5 M): 2 (10 < X < 20 Rank 2) | Comparison with the Binding of Phenylalanine (10^−6 M): 2 (10 < X < 20 Rank 2)

N[C@@H](Cc1ccccc1)C(=O)NC(Cc1cccc(CSc2nnc(-c3ccccc3)o2)c1)C(=O)O (stereo partly drawn) [Compound 48]
Comparison with the Binding of Phenylalanine (10^−4 M): 0 (X < 0 Rank 0) | Comparison with the Binding of Phenylalanine (10^−5 M): 1 (0 < X < 10 Rank 1) | Comparison with the Binding of Phenylalanine (10^−6 M): 1 (0 < X < 10 Rank 1)

O=C(Nc1ccc(-c2ccccc2)cc1)NC(Cc1cccc(CSc2nnc(-c3ccccc3)o2)c1)C(=O)O (stereo not drawn) [Compound 49]
Comparison with the Binding of Phenylalanine (10^−4 M): 2 (10 < X < 20 Rank 2) | Comparison with the Binding of Phenylalanine (10^−5 M): 3 (X > 20 Rank 3) | Comparison with the Binding of Phenylalanine (10^−6 M): 3 (X > 20 Rank 3)

N[C@@H](Cc1ccccc1)C(=O)NC(Cc1cccc(CSc2nnnn2-c2ccc(O)cc2)c1)C(=O)O (stereo partly drawn) [Compound 50]
Comparison with the Binding of Phenylalanine (10^−4 M): 0 (X < 0 Rank 0) | Comparison with the Binding of Phenylalanine (10^−5 M): 2 (10 < X < 20 Rank 2) | Comparison with the Binding of Phenylalanine (10^−6 M): 2 (10 < X < 20 Rank 2)

O=C(Nc1ccc(-c2ccccc2)cc1)NC(Cc1cccc(CSc2nnnn2-c2ccc(O)cc2)c1)C(=O)O (stereo not drawn) [Compound 51]
Comparison with the Binding of Phenylalanine (10^−4 M): 0 (X < 0 Rank 0) | Comparison with the Binding of Phenylalanine (10^−5 M): 3 (X > 20 Rank 3) | Comparison with the Binding of Phenylalanine (10^−6 M): 2 (10 < X < 20 Rank 2)

O=C(Nc1ccc(-c2ccccc2)cc1)NC(Cc1cccc(CSc2ncc[nH]2)c1)C(=O)O (stereo not drawn) [Compound 52]
Comparison with the Binding of Phenylalanine (10^−4 M): 0 (X < 0 Rank 0) | Comparison with the Binding of Phenylalanine (10^−5 M): 0 (X < 0 Rank 0) | Comparison with the Binding of Phenylalanine (10^−6 M): 1 (0 < X < 10 Rank 1)

N[C@@H](Cc1ccccc1)C(=O)NC(Cc1cccc(CSc2nnnn2-c2ccccc2)c1)C(=O)O (stereo partly drawn) [Compound 53]
Comparison with the Binding of Phenylalanine (10^−4 M): 0 (X < 0 Rank 0) | Comparison with the Binding of Phenylalanine (10^−5 M): 2 (10 < X < 20 Rank 2) | Comparison with the Binding of Phenylalanine (10^−6 M): 2 (10 < X < 20 Rank 2)

O=C(Nc1ccc(-c2ccccc2)cc1)NC(Cc1cccc(CSc2nnnn2-c2ccccc2)c1)C(=O)O (stereo not drawn) [Compound 54]
Comparison with the Binding of Phenylalanine (10^−4 M): 1 (0 < X < 10 Rank 1) | Comparison with the Binding of Phenylalanine (10^−5 M): 3 (X > 20 Rank 3) | Comparison with the Binding of Phenylalanine (10^−6 M): 2 (10 < X < 20 Rank 2)

NC(=O)C(Cc1cccc(CSc2nnc(-c3ccncc3)o2)c1)NC(=O)NC(c1ccccc1)c1ccccc1 (stereo not drawn) [Compound 55]
Comparison with the Binding of Phenylalanine (10^−4 M): 1 (0 < X < 10 Rank 1) | Comparison with the Binding of Phenylalanine (10^−5 M): 3 (X > 20 Rank 3) | Comparison with the Binding of Phenylalanine (10^−6 M): 2 (10 < X < 20 Rank 2)

O=C(NC(Cc1cccc(CSc2nnc(-c3ccccc3)[nH]2)c1)C(=O)O)NC(c1ccccc1)c1ccccc1 (stereo not drawn) [Compound 57]
Comparison with the Binding of Phenylalanine (10^−4 M): 3 (X > 20 Rank 3) | Comparison with the Binding of Phenylalanine (10^−5 M): 3 (X > 20 Rank 3) | Comparison with the Binding of Phenylalanine (10^−6 M): 3 (X > 20 Rank 3)

O=C(Nc1ccc(-c2ccccc2)cc1)NC(Cc1cccc(CSc2cncc3c(C(F)(F)F)cccc23)n1)C(=O)O (stereo not drawn) [Compound 61]
Comparison with the Binding of Phenylalanine (10^−4 M): 2 (10 < X < 20 Rank 2) | Comparison with the Binding of Phenylalanine (10^−5 M): 0 (X < 0 Rank 0) | Comparison with the Binding of Phenylalanine (10^−6 M): 2 (10 < X < 20 Rank 2)

O=C(Nc1ccc(-c2ccccc2)cc1)NC(Cc1cccc(CSc2nc3ccccc3[nH]2)n1)C(=O)O (stereo not drawn) [Compound 62]
Comparison with the Binding of Phenylalanine (10^−4 M): 0 (X < 0 Rank 0) | Comparison with the Binding of Phenylalanine (10^−5 M): 0 (X < 0 Rank 0) | Comparison with the Binding of Phenylalanine (10^−6 M): 3 (X > 20 Rank 3)

O=C(Nc1ccc(-c2ccccc2)cc1)NC(Cc1cccc(CSc2nc3ccccc3o2)n1)C(=O)O (stereo not drawn) [Compound 63]
Comparison with the Binding of Phenylalanine (10^−4 M): 0 (X < 0 Rank 0) | Comparison with the Binding of Phenylalanine (10^−5 M): 0 (X < 0 Rank 0) | Comparison with the Binding of Phenylalanine (10^−6 M): 1 (0 < X < 10 Rank 1)

O=C(O)C(Cc1cccc(CSc2ncnc3[nH]ncc23)n1)NS(=O)(=O)c1ccc(F)cc1 (stereo not drawn) [Compound 64]
Comparison with the Binding of Phenylalanine (10^−4 M): 0 (X < 0 Rank 0) | Comparison with the Binding of Phenylalanine (10^−5 M): 1 (0 < X < 10 Rank 1) | Comparison with the Binding of Phenylalanine (10^−6 M): 0 (X < 0 Rank 0)

NC(Cc1cccc(CSc2ccnc3cc(C(F)(F)F)ccc23)c1)C(=O)O (stereo not drawn) [Compound 70]
Comparison with the Binding of Phenylalanine (10^−4 M): 0 (X < 0 Rank 0) | Comparison with the Binding of Phenylalanine (10^−5 M): 1 (0 < X < 10 Rank 1) | Comparison with the Binding of Phenylalanine (10^−6 M): 0 (X < 0 Rank 0)
